# Assays:
# Format in all cases: in vivo
# [1] = tested on: barnyardgrass (Echinochloa crus-galli); assay: Test A postemergence application, visual injury rating 0-100; conditions: Postemergence, 10 days, 0 is no effect, 100 is complete control
# Procedure, shortened: (§1)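 Directed preemergence spray onto seeded soil or postemergence spray onto 2-10 cm plants (loam plus sand); compound carried in surfactant-containing non-phytotoxic solvent. Injury rated by eye after 10 d greenhouse growth; 0 = no effect, 100 = complete control.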
# [2] = tested on: wheat (Triticum aestivum); assay: as above; conditions: Postemergence, 10 days, 0 is no effect, 100 is complete control
# Procedure, shortened: as §1
# corn (Zea mays) [3] = assay: as above; conditions: Postemergence, 10 days, 0 is no effect, 100 is complete control
# Procedure, shortened: as §1
# [4] = tested on: blackgrass (Alopecurus myosuroides); assay: as above; conditions: Postemergence, 10 days, 0 is no effect, 100 is complete control
# Procedure, shortened: as §1
# kochia (Bassia scoparia) [5] = assay: as above; conditions: Postemergence, 10 days, 0 is no effect, 100 is complete control
# Procedure, shortened: as §1
# [6] = tested on: palmer (palmer amaranth, palmer pigweed, Amaranthus palmeri); assay: as above; conditions: Postemergence, 10 days, 0 is no effect, 100 is complete control
# Procedure, shortened: as §1
# [7] = tested on: oat, wild (wild oat, Avena fatua); assay: as above; conditions: Postemergence, 10 days, 0 is no effect, 100 is complete control
# Procedure, shortened: as §1
# [8] = tested on: ryegrass, Italian (italian ryegrass, Lolium multiflorum); assay: as above; conditions: Postemergence, 10 days, 0 is no effect, 100 is complete control
# Procedure, shortened: as §1
# [9] = tested on: ragweed (common ragweed, Ambrosia artemisiifolia); assay: as above; conditions: Postemergence, 10 days, 0 is no effect, 100 is complete control
# Procedure, shortened: as §1
# [10] = tested on: green foxtail (Setaria viridis); assay: as above; conditions: Postemergence, 10 days, 0 is no effect, 100 is complete control
# Procedure, shortened: as §1
# [11] = tested on: horseweed (Erigeron canadensis); assay: as above; conditions: Postemergence, 10 days, 0 is no effect, 100 is complete control
# Procedure, shortened: as §1
# soybean (Glycine max) [12] = assay: as above; conditions: Postemergence, 10 days, 0 is no effect, 100 is complete control
# Procedure, shortened: as §1
# [13] = tested on: galium (catchweed bedstraw, Galium aparine); assay: as above; conditions: Postemergence, 10 days, 0 is no effect, 100 is complete control
# Procedure, shortened: as §1
# [14] = tested on: barnyardgrass (Echinochloa crus-galli); assay: Test A preemergence soil spray, visual injury rating 0-100; conditions: 10 days, 0 = no effect, 100 = complete control
# Procedure, shortened: as §1
# [15] = tested on: wheat (Triticum aestivum); assay: as above; conditions: 10 days, 0 = no effect, 100 = complete control
# Procedure, shortened: as §1
# corn (Zea mays) [16] = assay: as above; conditions: 10 days, 0 = no effect, 100 = complete control
# Procedure, shortened: as §1
# [17] = tested on: blackgrass (Alopecurus myosuroides); assay: as above; conditions: 10 days, 0 = no effect, 100 = complete control
# Procedure, shortened: as §1
# kochia (Bassia scoparia) [18] = assay: as above; conditions: 10 days, 0 = no effect, 100 = complete control
# Procedure, shortened: as §1
# [19] = tested on: palmer (palmer amaranth, palmer pigweed, Amaranthus palmeri); assay: as above; conditions: 10 days, 0 = no effect, 100 = complete control
# Procedure, shortened: as §1
# [20] = tested on: oat, wild (wild oat, Avena fatua); assay: as above; conditions: 10 days, 0 = no effect, 100 = complete control
# Procedure, shortened: as §1
# [21] = tested on: ryegrass, Italian (italian ryegrass, Lolium multiflorum); assay: as above; conditions: 10 days, 0 = no effect, 100 = complete control
# Procedure, shortened: as §1
# [22] = tested on: ragweed (common ragweed, Ambrosia artemisiifolia); assay: as above; conditions: 10 days, 0 = no effect, 100 = complete control
# Procedure, shortened: as §1
# [23] = tested on: green foxtail (Setaria viridis); assay: as above; conditions: 10 days, 0 = no effect, 100 = complete control
# Procedure, shortened: as §1
# soybean (Glycine max) [24] = assay: as above; conditions: 10 days, 0 = no effect, 100 = complete control
# Procedure, shortened: as §1
# [25] = tested on: ducksalad (Heteranthera limosa); assay: Test B flooded paddy test, visual plant response rating 0-100; conditions: 250 g ai/ha, Flood, applied to paddy water, evaluated after 13 days
# Procedure, shortened: (§2)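 Visual scores versus untreated controls were recorded 13 days after treatment of greenhouse-held plants. At the 2-leaf stage, pots were flooded 3 cm above the soil surface and compounds added straight to the water.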
# rice (Oryza sativa) = assay: as above; conditions: 250 g ai/ha, Flood, applied to paddy water, evaluated after 13 days
# Procedure, shortened: as §2
# [26] = tested on: barnyardgrass (Echinochloa crusgalli); assay: as above; conditions: 250 g ai/ha, Flood, applied to paddy water, evaluated after 13 days
# Procedure, shortened: as §2
# [27] = tested on: sedge, umbrella (small-flower umbrella sedge, Cyperus difformis); assay: as above; conditions: 250 g ai/ha, Flood, applied to paddy water, evaluated after 13 days
# Procedure, shortened: as §2
compound,measurement,setting,value
CCOC(=O)C1C=CC(NC(=O)C2(C)CN(c3cc(Cl)cc(Cl)c3)C(=O)O2)C1 (stereo not shown) [Compound 44],Barnyardgrass plant response rating (0 to 100 scale),[1]; 125 g ai/ha,100
same,Barnyardgrass plant response rating (0 to 100 scale),[1]; 500 g ai/ha,100
same,Wheat plant response rating (0 to 100 scale),[2]; 125 g ai/ha,90
same,Wheat plant response rating (0 to 100 scale),[2]; 500 g ai/ha,90
same,Corn plant response rating (0 to 100 scale),corn (Zea mays) [3]; 125 g ai/ha,100
same,Corn plant response rating (0 to 100 scale),corn (Zea mays) [3]; 500 g ai/ha,100
same,Blackgrass plant response rating (0 to 100 scale),[4]; 125 g ai/ha,100
same,Blackgrass plant response rating (0 to 100 scale),[4]; 500 g ai/ha,100
same,Kochia plant response rating (0 to 100 scale),kochia (Bassia scoparia) [5]; 125 g ai/ha,80
same,Kochia plant response rating (0 to 100 scale),kochia (Bassia scoparia) [5]; 500 g ai/ha,80
same,"Amaranth, Palmer / Pigweed, Palmer plant response rating (0 to 100 scale)",[6]; 125 g ai/ha,100
same,"Amaranth, Palmer / Pigweed, Palmer plant response rating (0 to 100 scale)",[6]; 500 g ai/ha,100
same,"Oat, Wild plant response rating (0 to 100 scale)",[7]; 125 g ai/ha,90
same,"Oat, Wild plant response rating (0 to 100 scale)",[7]; 500 g ai/ha,90
same,"Ryegrass, Italian plant response rating (0 to 100 scale)",[8]; 125 g ai/ha,90
same,"Ryegrass, Italian plant response rating (0 to 100 scale)",[8]; 500 g ai/ha,80
same,Ragweed plant response rating (0 to 100 scale),[9]; 125 g ai/ha,70
same,Ragweed plant response rating (0 to 100 scale),[9]; 500 g ai/ha,80
same,"Foxtail, Green plant response rating (0 to 100 scale)",[10]; 125 g ai/ha,90
same,"Foxtail, Green plant response rating (0 to 100 scale)",[10]; 500 g ai/ha,90
same,Horseweed plant response rating (0 to 100 scale),[11]; 125 g ai/ha,90
same,Horseweed plant response rating (0 to 100 scale),[11]; 500 g ai/ha,90
same,Soybean plant response rating (0 to 100 scale),soybean (Glycine max) [12]; 125 g ai/ha,90
same,Soybean plant response rating (0 to 100 scale),soybean (Glycine max) [12]; 500 g ai/ha,80
same,Galium plant response rating (0 to 100 scale),[13]; 125 g ai/ha,70
same,Galium plant response rating (0 to 100 scale),[13]; 500 g ai/ha,70
same,Barnyardgrass plant response rating (0 to 100 scale),[14]; 125 g ai/ha,100
same,Barnyardgrass plant response rating (0 to 100 scale),[14]; 500 g ai/ha,100
same,Wheat plant response rating (0 to 100 scale),[15]; 125 g ai/ha,90
same,Wheat plant response rating (0 to 100 scale),[15]; 500 g ai/ha,90
same,Corn plant response rating (0 to 100 scale),corn (Zea mays) [16]; 125 g ai/ha,70
same,Corn plant response rating (0 to 100 scale),corn (Zea mays) [16]; 500 g ai/ha,90
same,Blackgrass plant response rating (0 to 100 scale),[17]; 125 g ai/ha,90
same,Blackgrass plant response rating (0 to 100 scale),[17]; 500 g ai/ha,100
same,Kochia plant response rating (0 to 100 scale),kochia (Bassia scoparia) [18]; 125 g ai/ha,100
same,Kochia plant response rating (0 to 100 scale),kochia (Bassia scoparia) [18]; 500 g ai/ha,100
same,"Amaranth, Palmer plant response rating (0 to 100 scale)",[19]; 125 g ai/ha,100
same,"Amaranth, Palmer plant response rating (0 to 100 scale)",[19]; 500 g ai/ha,100
same,"Oat, Wild plant response rating (0 to 100 scale)",[20]; 125 g ai/ha,80
same,"Oat, Wild plant response rating (0 to 100 scale)",[20]; 500 g ai/ha,90
same,"Ryegrass, Italian plant response rating (0 to 100 scale)",[21]; 125 g ai/ha,90
same,"Ryegrass, Italian plant response rating (0 to 100 scale)",[21]; 500 g ai/ha,100
same,Ragweed plant response rating (0 to 100 scale),[22]; 125 g ai/ha,10
same,Ragweed plant response rating (0 to 100 scale),[22]; 500 g ai/ha,60
same,"Foxtail, Green plant response rating (0 to 100 scale)",[23]; 125 g ai/ha,90
same,"Foxtail, Green plant response rating (0 to 100 scale)",[23]; 500 g ai/ha,100
same,Soybean plant response rating (0 to 100 scale),soybean (Glycine max) [24]; 125 g ai/ha,20
same,Soybean plant response rating (0 to 100 scale),soybean (Glycine max) [24]; 500 g ai/ha,70
same,"Plant response rating, Ducksalad (0 to 100 scale, 0 is no effect and 100 is complete control)",[25],90
same,"Plant response rating, Rice (0 to 100 scale, 0 is no effect and 100 is complete control)",rice (Oryza sativa),15
same,"Plant response rating, Barnyardgrass (0 to 100 scale, 0 is no effect and 100 is complete control)",[26],80
same,"Plant response rating, Sedge, Umbrella (0 to 100 scale, 0 is no effect and 100 is complete control)",[27],95
